Source: patent US5300629A, “Bactericidal and/or bacteriostatic peptides isolated from hemolymph of honeybees” (Plant Genetic Systems, N.V., priority 1987, dated 1994)
In brackets after ≈: the same amount, converted by molar mass. Where a SMILES comes first, the peptide text is derived from it.

Tests used:
Type in all cases: cell-based
[1] = test system: Erwinia carotovora var carotovora NCPPB 312; assay: Minimal inhibitory concentration in liquid culture; conditions: 200 μl rich medium, 10^4 log-phase bacteria
[2] = test system: Salmonella typhimurium ATCC 23565; assay: Minimal inhibitory concentration in liquid culture; conditions: 200 μl rich medium, 10^4 log-phase bacteria
[3] = test system: Pseudomonas syringae pv. maculicola NCPPB 1776; assay: Minimal inhibitory concentration in liquid culture; conditions: 200 μl rich medium, 10^4 log-phase bacteria
[4] = test system: Xanthomonas campestris pv. vesicatoria LMG 905; assay: Minimal inhibitory concentration in liquid culture; conditions: 200 μl rich medium, 10^4 log-phase bacteria, + = no inhibition at maximal value
Procedure: (§1) In addition the exact concentration was determined precisely by amino-acid analysis and an equal sample of natural Bee 6b was prepared, allowing to compare the bactericidal activity of both natural and synthetic apidaecins by means of growth inhibition assays in liquid cultures (see mat & Meth.). The minimal inhibitory concentrations (μg/ml) were determined in liquid culture : 200 μl of a rich medium (trypticase soy broth or nutrient broth) was inoculated with 10^4 log-phase bacteria. Peptide concentrations ranged between 0 and 200 μg/ml. The values express μg/ml; when no inhibition was noticed the maximal values are given (+200 μg/ml or +50 μg/ml). All peptides were chemically synthesized, except for bee 6b which is purified from bee lymph.

[5] = test system: Corynebacterium insidiosum NCPPB 1109; assay: Minimal inhibitory concentration in liquid culture; conditions: 200 μl rich medium, 10^4 log-phase bacteria
Procedure: as §1

[6] = test system: Corynebacterium michiganense pv. michiganense NCPPB 1573; assay: Minimal inhibitory concentration in liquid culture; conditions: 200 μl rich medium, 10^4 log-phase bacteria, + = no inhibition at maximal value
Procedure: as §1

Shigella flexneri CP 87 = assay: Minimal inhibitory concentration in liquid culture; conditions: 200 μl rich medium, 10^4 log-phase bacteria
Procedure: as §1

E. coli NCTC 9001 = assay: Bactericidal activity, method not stated; conditions: lyophilized apidaecins resuspended in PBS
[7] = test system: Bacillus subtilis NRRL-B-237; assay: Minimal inhibitory concentration in liquid culture; conditions: 200 μl rich medium, 10^4 log-phase bacteria, + = no inhibition at maximal value
[8] = test system: Pseudomonas solanacearum ATCC 11696; conditions: 200 μl rich medium, 10^4 log-phase bacteria
[9] = test system: Escherichia coli NCTC 9001; assay: Minimal inhibitory concentration in liquid culture; conditions: 200 μl rich medium, 10^4 log-phase bacteria
[10] = test system: Pseudomonas syringae pv. tomato NCPPB 1106; assay: Minimal inhibitory concentration in liquid culture; conditions: 200 μl rich medium, 10^4 log-phase bacteria
Salmonella Newport CD 94 = assay: Minimal inhibitory concentration in liquid culture; conditions: 200 μl rich medium, 10^4 log-phase bacteria
[11] = test system: Citrobacter freundii ATCC 8090; assay: Minimal inhibitory concentration in liquid culture; conditions: 200 μl rich medium, 10^4 log-phase bacteria
[12] = test system: Agrobactierium tumefaciens DSM 3129; assay: Minimal inhibitory concentration in liquid culture; conditions: 200 μl rich medium, 10^4 log-phase bacteria
[13] = test system: Rhizobium meliloti ZB 314; assay: Minimal inhibitory concentration in liquid culture; conditions: 200 μl rich medium, 10^4 log-phase bacteria
[14] = test system: Bacillus megaterium QB 1551; assay: Minimal inhibitory concentration in liquid culture; conditions: 200 μl rich medium, 10^4 log-phase bacteria, + = no inhibition at maximal value
Bacillus alvei LMG 6922 = assay: Minimal inhibitory concentration in liquid culture; conditions: 200 μl rich medium, 10^4 log-phase bacteria, + = no inhibition at maximal value
[15] = test system: Pseudomonas syringae pv. tabaci NCPPB 1237; assay: Minimal inhibitory concentration in liquid culture; conditions: 200 μl rich medium, 10^4 log-phase bacteria
[16] = test system: Erwinia salicis NCPPB 2530; assay: Minimal inhibitory concentration in liquid culture; conditions: 200 μl rich medium, 10^4 log-phase bacteria
[17] = test system: Xanthomonas campestris pv. campestris A 902; assay: Minimal inhibitory concentration in liquid culture; conditions: 200 μl rich medium, 10^4 log-phase bacteria, + = no inhibition at maximal value
[18] = test system: Erwinia carotovora var atroseptica LMG 2385; assay: Minimal inhibitory concentration in liquid culture; conditions: 200 μl rich medium, 10^4 log-phase bacteria
[19] = test system: Enterobacter agglomerans Gilardi 1081; assay: Inhibition zone assay; parameters: key: --: "-" means that no inhibition has been found; conditions: I and B 10 ul, L 5 ug
[20] = test system: Erwinia carotovora var. atroseptica NCPPB 549; assay: Inhibition zone assay; parameters: key: --: "-" means that no inhibition has been found; conditions: I and B 10 ul, L 5 ug
[21] = test system: Serratia liquefaciens DSM 30125; assay: Inhibition zone assay; parameters: key: --: "-" means that no inhibition has been found; conditions: I 10 ul, L 5 ug
[22] = test system: Bacillus megaterium QMB 1551; assay: Inhibition zone assay; conditions: I and B 10 ul, L 5 ug
[23] = test system: Agrobacterium radiobacter ATCC 19358; assay: Inhibition zone assay; parameters: key: --: "-" means that no inhibition has been found; conditions: I and B 10 ul, L 5 ug
[24] = test system: Bacillus thuringiensis DSM 3131; assay: Inhibition zone assay; parameters: key: --: "-" means that no inhibition has been found; conditions: I and B 10 ul, L 5 ug
[25] = test system: Janthinobacterium lividum Sneath HB; assay: Inhibition zone assay; parameters: key: --: "-" means that no inhibition has been found; conditions: I and B 10 ul, L 5 ug
[26] = test system: Serratia plymuthica ATCC 183; assay: Inhibition zone assay; parameters: key: --: "-" means that no inhibition has been found; conditions: I and B 10 ul, L 5 ug
[27] = test system: Rhodococcus equi ATCC 25729; assay: Inhibition zone assay; conditions: I and B 10 ul, L 5 ug
[28] = test system: Azospirillum lipoferum ATCC 29707; assay: Inhibition zone assay; parameters: key: --: "-" means that no inhibition has been found; conditions: I and B 10 ul, L 5 ug
[29] = test system: Pseudomonas cepacia ATCC 25416; assay: Inhibition zone assay; parameters: key: --: "-" means that no inhibition has been found; conditions: I and B 10 ul, L 5 ug
[30] = test system: Rhizobium phaseoli CIAT 899; assay: Inhibition zone assay; parameters: key: --: "-" means that no inhibition has been found; conditions: I and B 10 ul, L 5 ug
[31] = test system: Agrobacterium rhizogenes ATCC 11325; assay: Inhibition zone assay; parameters: key: --: "-" means that no inhibition has been found; conditions: I and B 10 ul, L 5 ug
[32] = test system: Corynebacterium fascians NCPPB 1488; assay: Inhibition zone assay; parameters: key: --: "-" means that no inhibition has been found; conditions: I and B 10 ul, L 5 ug
[33] = test system: Flavobacterium devorans NRRL B-54; assay: Inhibition zone assay; parameters: key: --: "-" means that no inhibition has been found; conditions: I and B 10 ul, L 5 ug
[34] = test system: Klebsiella aerogenes 1961 E; assay: Inhibition zone assay; parameters: key: --: "-" means that no inhibition has been found; conditions: I and B 10 ul, L 5 ug
[35] = test system: Pseudomonas acidovorans CuETM 83-109; assay: Inhibition zone assay; parameters: key: --: "-" means that no inhibition has been found; conditions: I and B 10 ul, L 5 ug
[36] = test system: Pseudomonas paucimobilis ATCC 29837; assay: Inhibition zone assay; parameters: key: --: "-" means that no inhibition has been found; conditions: L 5 ug
[37] = test system: Agrobacterium tumefaciens DSM 3129; assay: Inhibition zone assay; parameters: key: --: "-" means that no inhibition has been found; conditions: I and B 10 ul, L 5 ug
[38] = test system: Micrococcus lysodeikticus LMG 4050; assay: Inhibition zone assay; conditions: I and B 10 ul, L 5 ug
[39] = test system: Erwinia salicis NCPPB 2530; assay: Inhibition zone assay; parameters: key: --: "-" means that no inhibition has been found; conditions: I and B 10 ul, L 5 ug
[40] = test system: Corynebacterium insidiosum NCPPB 1109; assay: Inhibition zone assay; conditions: I and B 10 ul, L 5 ug
Procedure: Whole lymph or purified components, resuspended in PBS to a final volume equal to the starting material (heated lymph), was applied in 3 mm wells on agar plates seeded with the test organisms. Antibacterial activity was determined by measuring the growth-inhibition zones (in mm).

[41] = test system: Rhizobium meliloti ZB 314; assay: Inhibition zone assay; parameters: key: --: "-" means that no inhibition has been found; conditions: I and B 10 ul, L 5 ug
[42] = test system: Staphylococcus hominis STH B3; assay: Inhibition zone assay; parameters: key: --: "-" means that no inhibition has been found; conditions: L 5 ug
[43] = test system: Pseudomonas aureofaciens CCEB 518; assay: Inhibition zone assay; parameters: key: --: "-" means that no inhibition has been found; conditions: I and B 10 ul, L 5 ug
[44] = test system: Xanthomonas campestris pv. oryzae IRN 235; parameters: key: --: "-" means that no inhibition has been found
[45] = test system: Xanthomonas campestris pv. graminis NCPPB 2700; assay: Inhibition zone assay; parameters: key: --: "-" means that no inhibition has been found; conditions: I and B 10 ul, L 5 ug
[46] = test system: Bacillus subtilis NRRL B-237; assay: Inhibition zone assay; parameters: key: --: "-" means that no inhibition has been found; conditions: I and B 10 ul, L 5 ug
[47] = test system: Bordetella bronchiseptica ATCC 19395; assay: Inhibition zone assay; parameters: key: --: "-" means that no inhibition has been found; conditions: I and B 10 ul, L 5 ug
[48] = test system: Proteus morganii CuETM 77-83; assay: Inhibition zone assay; parameters: key: --: "-" means that no inhibition has been found; conditions: I and B 10 ul, L 5 ug
[49] = test system: Xanthomonas campestris pv. vesicatoria XV82-4; assay: Inhibition zone assay; parameters: key: --: "-" means that no inhibition has been found; conditions: I and B 10 ul, L 5 ug
[50] = test system: Serratia fonticola ATCC 298449; assay: Inhibition zone assay; parameters: key: --: "-" means that no inhibition has been found; conditions: I and B 10 ul, L 5 ug
[51] = test system: Listeria monocytogenes B5; assay: Inhibition zone assay; parameters: key: --: "-" means that no inhibition has been found; conditions: L 5 ug

CC[C@H](C)[C@H](NC(=O)[C@@H]1CCCN1C(=O)[C@H](CCCNC(=N)N)NC(=O)[C@H](CC(N)=O)NC(=O)[C@H](CC(N)=O)NC(=O)CN)C(=O)N[C@@H](Cc1ccc(O)cc1)C(=O)N[C@H](C(=O)N1CCC[C@H]1C(=O)N[C@@H](CCC(N)=O)C(=O)N1CCC[C@H]1C(=O)N[C@@H](CCCNC(=N)N)C(=O)N1CCC[C@H]1C(=O)N1CCC[C@H]1C(=O)N[C@@H](Cc1c[nH]cn1)C(=O)N1CCC[C@H]1C(=O)N[C@@H](CCCNC(=N)N)C(=O)N[C@@H](CC(C)C)C(=O)O)[C@@H](C)CC [Apid II] (H-GNNRPIYIPQPRPPHPRL-OH) gave a minimal inhibitory concentration [1] of 2.5 µg/mL (≈ 1.18 µM), a minimal inhibitory concentration [2] of 0.1 µg/mL (≈ 0.0471 µM) and a minimal inhibitory concentration [3] of 0.5 µg/mL (≈ 0.236 µM). The minimal inhibitory concentration [4] was over 50 µg/mL, the minimal inhibitory concentration [5] was 100 µg/mL (≈ 47.1 µM) and the minimal inhibitory concentration [6] was over 50 µg/mL. For the same molecule, the minimal inhibitory concentration (Shigella flexneri CP 87) was 0.1 µg/mL (≈ 0.0471 µM), the bactericidal activity (E. coli NCTC 9001) was “possessed a bactericidal activity” and the minimal inhibitory concentration [7] was over 200 µg/mL. For the same molecule, the minimal inhibitory concentration [8] was 10 µg/mL (≈ 4.71 µM), the minimal inhibitory concentration [9] was 0.2 µg/mL (≈ 0.0942 µM) and the minimal inhibitory concentration [10] was 0.1 µg/mL (≈ 0.0471 µM). For the same molecule, the minimal inhibitory concentration (Salmonella Newport CD 94) was 0.2 µg/mL (≈ 0.0942 µM), the minimal inhibitory concentration [11] was 0.2 µg/mL (≈ 0.0942 µM) and the minimal inhibitory concentration [12] was 0.2 µg/mL (≈ 0.0942 µM). The minimal inhibitory concentration [13] was 0.02 µg/mL (≈ 0.00942 µM), the minimal inhibitory concentration [14] was 100 µg/mL and the minimal inhibitory concentration (Bacillus alvei LMG 6922) was over 200 µg/mL. The minimal inhibitory concentration [15] was 1 µg/mL (≈ 0.471 µM), the minimal inhibitory concentration [16] was 0.02 µg/mL (≈ 0.00942 µM) and the minimal inhibitory concentration [17] was 50 µg/mL. The minimal inhibitory concentration [18] was 0.5 µg/mL (≈ 0.236 µM).
“chicken lysozyme: hen egg white lysozyme, comparison [reference compound]” was tested, and the “diameter of growth-inhibition zone” value [19] was “--”, the “diameter of growth-inhibition zone” value [20] was “--” and the “diameter of growth-inhibition zone” value [21] was “--”. The “diameter of growth-inhibition zone” value [22] was 6 mm, the “diameter of growth-inhibition zone” value [23] was “--” and the “diameter of growth-inhibition zone” value [24] was “--”. For the same molecule, the “diameter of growth-inhibition zone” value [25] was “--”, the “diameter of growth-inhibition zone” value [26] was “--” and the “diameter of growth-inhibition zone” value [27] was 4 mm. The “diameter of growth-inhibition zone” value [28] was “--”, the “diameter of growth-inhibition zone” value [29] was “--” and the “diameter of growth-inhibition zone” value [30] was “--”. For the same molecule, the “diameter of growth-inhibition zone” value [31] was “--”, the “diameter of growth-inhibition zone” value [32] was “--” and the “diameter of growth-inhibition zone” value [33] was “--”. For the same molecule, the “diameter of growth-inhibition zone” value [34] was “--”, the “diameter of growth-inhibition zone” value [35] was “--” and the “diameter of growth-inhibition zone” value [36] was “--”. The “diameter of growth-inhibition zone” value [37] was “--”, the “diameter of growth-inhibition zone” value [38] was 9 mm and the “diameter of growth-inhibition zone” value [39] was “--”. For the same molecule, the “diameter of growth-inhibition zone” value [40] was 6 mm, the “diameter of growth-inhibition zone” value [41] was “--” and the “diameter of growth-inhibition zone” value [42] was “--”. The “diameter of growth-inhibition zone” value [43] was “--”, the “diameter of growth-inhibition zone” value [44] was “--” and the “diameter of growth-inhibition zone” value [45] was “--”. The “diameter of growth-inhibition zone” value [46] was “--”, the “diameter of growth-inhibition zone” value [47] was “--” and the “diameter of growth-inhibition zone” value [48] was “--”. The “diameter of growth-inhibition zone” value [49] was “--”, the “diameter of growth-inhibition zone” value [50] was “--” and the “diameter of growth-inhibition zone” value [51] was “--”.
